What was measured:
Assay type in all cases: cell-based, human
HBD-3 = HBD-3 gene expression in NHEKs (Example 5); settings: 0.01% and 0.02% thujopsene, 24 hours, dose-dependent, versus no thujopsene (FIG. 5A)
Description: (§1) The upregulation of expressions of HBD-3, LL-37, OR2AT4, and/or SIRT1 can promote would healing and the upregulation of SIRT1 can inhibit tumor cell growth in skin cancer. To investigate the effects of thujopsene on expression of RBD-3, LL-37, OR2AT4, and SIRT1, NHEKs were differentiated in the presence of 1.3 mmol/L of CaCl2) for 3 days. Then cells were stimulated with 0.01% or 0.02% thujopsene for an additional 24 hours. The cell culture medium with 0.1% was used as a vehicle control because thujopsene was diluted with 0.1% of DMSO in cell culture medium.
(§2) Total RNA was isolated from to the cells, and real time RT-PCRs were performed by using an ABI Prism 7300 sequence detector.

IL-6 = assay: LPS-induced IL-6 gene expression in NHEKs (Example 6); settings: thujopsene (0.01%) plus LPS (1 μg/mL), 24 hours, versus LPS alone (FIG. 6A)
Description: (§3) IL-6 aging process and wrinkling and is induced by lipopolysaccharide (LPS) (PMID: 23659624). SIRT1 inhibits skin aging and wrinkling process (PMID: 24011076). To investigate the effects of thujopsene on expression of IL-6 and SIRT1, NHEKs were seeded at 2×10^5 cells per well and differentiated in the presence of 1.3 mmol/L of CaCl2) for 3 days. NHEKs were stimulated with 0.01% or 0.02% thujopsene for 24 hours, and then cells were stimulated with LPS (1 μg/mL) alone or a combination of LPS (1 μg/mL) and thujopsene (0.01%) for an additional 24 hours. The cell culture medium with 0.1% DMSO was used as a vehicle. Total RNAs were isolated from cells, and real time RT-PCRs were performed by using an ABI Prism 7300 sequence detector.

NHEKs = assay: LDH cell cytotoxicity assay in NHEKs (Example 7)
Description: LDH cell cytotoxicity assay: NHEKs were plated at 2×10^5 cells per well in a 24-well plate and differentiated in the presence of 1.3 mmol/L of CaCl2) for 3 days. To examine cell toxicity of thujopsene, the cells were treated with various concentrations of thujopsene for 48 hours, and lactate dehydrogenase (LDH) release was then determined using CytoTox-One Homogeneous Membrane Integrity Assay (Promega, Madison, WI, USA) according to the manufacturer's instructions. Fluorescence was measured on a DTX880 Multimode Detector (Beckman Coulter, Brea, CA, USA) with an excitation wavelength of 560 nm and an emission wavelength of 590 nm. Samples were tested in triplicate and fluorescence results were normalized by subtracting a PBS blank and compared to the keratinocyte LDH release in response to the treatment with 1% triton X-100 solution (maximum LDH release).

OR2AT4 = OR2AT4 gene expression in NHEKs (Example 5); settings: 0.01% and 0.02% thujopsene, 24 hours, dose-dependent, versus no thujopsene (FIG. 5C)
Description: as §1, §2

SIRT1 [1] = assay: SIRT1 gene expression in NHEKs (Example 6)
Description: as §3

LOR [2] = assay: LOR gene expression in keratinocytes from atopic dermatitis patients (Example 3); settings: keratinocytes from AD patients, 0.01 v/v % thujopsene, 24 hours, P=0.01 (FIG. 3B)
Description: (§4) Human epidermal keratinocytes taken from atopic dermatitis (AD) patients were differentiated in the presence of 1.3 mmol/L of CaCl2) for 3 days, and then the cells were stimulated with 0% and 0.01 v/v % of thujopsene for an additional 24 hours. Total RNA was isolated from keratinocytes. Gene expression levels of FLG and LOR were determined by real-time RT-PCR and normalized to the corresponding 18s RNA transcript in the cultured keratinocytes.

LOR [3] = assay: LOR gene expression in NHEKs, real-time RT-PCR (Example 1); settings: 0.01 and 0.02 v/v % thujopsene, 24 hours, dose-dependent, normalized to 18s RNA (FIG. 1B)
Description: (§5) Normal human epidermal keratinocytes (NHEKs) were cultured in a conventional way. NHEKs (Life Technologies, Grand Island, NY, USA) were derived from neonatal foreskin and were grown in serum-free EpiLife cell culture medium (Life Technologies) containing 0.06 mmol/L calcium chloride, 1% human keratinocyte growth supplement S7 (Life Technologies), and 1% of gentamicin/amphotericin. To investigate the effects of thujopsene on the expressions of FLG and LOR, NHEKs were seeded at 2×10^5 cells per well (24-well plate) and differentiated in the presence of 1.3 mmol/L of CaCl2) for 3 days. Then the cells were stimulated with 0 v/v %, 0.01 v/v % and 0.02 v/v % of thujopsene, IL-4 and IL-13, or IFN-γ for an additional 24 hours. Total RNA was isolated from NHEKs. Gene expression levels of FLG and LOR were determined by real-time RT-PCR using an ABI Prism 7300 sequence detector. Gene expressions of FLG and LOR were normalized to the corresponding 18s RNA transcript in the cultured NHEKs.

FLG [4] = assay: FLG gene expression in NHEKs, real-time RT-PCR (Example 1); settings: 0.01 and 0.02 v/v % thujopsene, 24 hours, dose-dependent, normalized to 18s RNA (FIG. 1A)
Description: as §5

FLG [5] = assay: Th2 cytokine (IL-4 and IL-13)-mediated inhibition of FLG in NHEKs (Example 2); settings: 0.01% thujopsene 24 hours, then IL-4 and IL-13 with thujopsene for 2 days (FIG. 2)
Description: NHEKs were differentiated in the presence of 1.3 mmol/L of CaCl2) for 3 days. HEKs were incubated with 0.01% of thujopsene for 24 hours, and then the cells were continuously stimulated with IL-4 and IL-13 in the presence or absence of 0.01% of thujopsene for an additional 2 days. The gene expression of FLG was examined using real-time RT-PCR.

LL-37 = LL-37 gene expression in NHEKs (Example 5); settings: 0.01% and 0.02% thujopsene, 24 hours, dose-dependent, versus no thujopsene (FIG. 5B)
Description: as §1, §2

LOR [6] = assay: PM2.5-mediated inhibition of LOR in NHEKs (Example 4); settings: 0.01% thujopsene 24 hours, then PM2.5 (1 ng/mL) plus thujopsene 48 hours (FIG. 4B)
Description: (§6) To investigate the effects of the PM2.5 on the expression of FLG and LOR, NHEKs were differentiated in the presence of 1.3 mmol/L of CaCl2) for 3 days. Then cells were stimulated with PM2.5 (1 ng/mL) for an additional 48 hours.
(§7) To examine whether thujopsene blocks PM2.5-mediated inhibition of epidermal barrier proteins such as FLG and LOR, NHEKs were incubated with thujopsene (0.01 v/v %) for 24 hours, and then cells were stimulated with PM2.5 (1 ng/mL) or combination of thujopsene (0.01 v/v %) and PM2.5 for an additional 48 hours. Total RNAs were isolated from the cells, and real time RT-PCR was performed. EpiLife cell culture medium with 0.1% DMSO was used as a vehicle control for all in vitro experiments, as PM2.5 was diluted with EpiLife cell culture medium with 0.1% DMSO.

FLG [7] = assay: FLG gene expression in keratinocytes from atopic dermatitis patients (Example 3); settings: keratinocytes from AD patients, 0.01 v/v % thujopsene, 24 hours, P<0.05 (FIG. 3A)
Description: as §4

SIRT1 [8] = assay: SIRT1 gene expression in NHEKs (Example 5); settings: 0.01% and 0.02% thujopsene, 24 hours, dose-dependent, versus no thujopsene (FIG. 5D)
Description: as §1, §2

FLG [9] = assay: PM2.5-mediated inhibition of FLG in NHEKs (Example 4); settings: 0.01% thujopsene 24 hours, then PM2.5 (1 ng/mL) plus thujopsene 48 hours (FIG. 4A)
Description: as §6, §7

CC1=CC[C@]2(C)CCCC(C)(C)[C@@]23C[C@@H]13 [thujopsene]
gene expression of RBD-3 (HBD-3): significantly increased
LPS-induced expression of IL-6 (IL-6): significantly (P<0.01) attenuated
toxicity to NHEKs (NHEKs; thujopsene up to 0.04 v/v % (FIG. 7 legend)): not toxic
LDH release compared to cells treated with media alone (NHEKs; thujopsene up to 4 v/v %, 48 hours (FIG. 7)): significantly decreased
toxicity to NHEKs (NHEKs; thujopsene up to 4 v/v %, 48 hours, LDH release (FIG. 7)): not toxic
gene expression of OR2AT4 (OR2AT4): significantly increased
gene expression of SIRT1 (SIRT1 [1]; 0.01% thujopsene, P<0.05 versus no thujopsene (FIG. 6B)): significantly increased
gene expression of SIRT1 (SIRT1 [1]; 0.02% thujopsene, P<0.01 versus no thujopsene (FIG. 6B)): significantly increased
LOR gene expression compared to vehicle (LOR [2]): significantly increased
LOR gene expression (LOR [3]): significantly increases
FLG gene expression (FLG [4]): significantly increases
FLG gene expression, Th2 cytokines plus thujopsene compared with Th2 cytokines alone (FLG [5]): significantly (P<0.01) increased
gene expression of LL-37 (LL-37): significantly increased
level of expression of the LOR gene, PM2.5 plus thujopsene versus control (LOR [6]): about equal to the control
FLG gene expression compared to vehicle (FLG [7]): significantly increased
gene expression of SIRT1 (SIRT1 [8]): significantly increased
level of expression of the FLG gene, PM2.5 plus thujopsene versus control (FLG [9]): higher than the control
